Reference: article PMC5452965 (PeerJ, 2017)
Where two headings read alike, the source gives them in different places.

Assays:
[1] = test system: microtubule network in α-tubulin-GFP U2OS cells; conditions: cited from earlier work
[2] = target: T1, Porcine brain tubulin plus MAPs (Sus scrofa, UniProt P02550+P02554)
T1 construct: Porcine brain tubulin plus MAPs was prepared by two cycles of polymerization and depolymerization; from tissue; host or cells: porcine brain

[3] = test system: actin filaments in Hela cells; conditions: cited from earlier work
Hela cells [4] = conditions: MTT, 48 h; ref Wang et al. (2016a); cited from earlier work
MCF-7 cells [5] = conditions: MTT, 72 h; ref Wang et al. (2016a); cited from earlier work
U2OS cells [6] = conditions: MTT, 48 h; ref Wang et al. (2016a); cited from earlier work
Hela cells [7] = conditions: 24 h, ref Wang et al. (2016a), cited from earlier work
[8] = test system: cellular actin filaments in actin-RFP Hela cells; conditions: ref Wang et al. (2016a); cited from earlier work
[9] = test system: mitotic spindles in Hela cells; conditions: Hela metaphase cells, 24 h, IC50; ref Wang et al. (2016a); cited from earlier work
[10] = test system: Hela, MCF-7 and U2OS cells; assay: MTT assay, summary over three cell lines; type: cell-based; conditions: Homo sapiens; range over Hela, MCF-7, U2OS and over the three cucurbitacins
Method: (§1) The anti-proliferative effects of cucurbitacins were assessed using MTT assay, as previously described ([Nurcahyanti & Wink, 2015]). In brief, cells (1 × 10^4) were seeded in 96-well plates and incubated with different concentrations of cucurbitacins for 48 h (Hela, U2OS) and 72 h (MCF-7). MTT solution was then added and incubated for 2 h. The plates were read at 570 nm after the addition of DMSO using Tecan infinite M200 Pro (Tecan, Crailsheim, Germany).
(§2) All experiments were done in triplicate, repeated three times. Data are presented as mean ± standard deviation (SD). Statistical comparison between controls and different treatments were performed by an unpaired student’s t test using Microsoft excel 2013 (Microsoft Corporation, Washington, USA). Significance was considered at p < 0.05.

Hela cells [11] = assay: MTT assay (cytotoxicity), Hela; type: cell-based, human; conditions: 48 h; for IC80: 80% reduction of cell viability
Method: as §1, §2

MCF-7 cells [12] = assay: MTT assay (cytotoxicity), MCF-7; type: cell-based, human
Method: as §1, §2

Hela cells [13] = assay: Cell cycle analysis (propidium iodide, flow cytometry); type: cell-based, human; conditions: 24 h
Method: Cell cycle analysis was carried out as established in our laboratory ([Su, Cheng & Wink, 2015]). Briefly, Hela cells (5 × 10^5) were seeded in 6-well-plates and treated with different concentrations of cucurbitacins for 24 h. Cells were then collected, centrifuged and fixed in 70% ice-cold ethanol for at least 8 h. After washing steps, cells were treated with 0.2 mg/ml RNase A for 30 min at 37 C and then stained with 0.1 mg/ml propidium iodide. Samples were analyzed using a FACScan flow cytometer (Becton Dickinson, Heidelberg, Germany). Data were analyzed using Cell Quest™ Pro software (Becton Dickinson) and Microsoft excel (Microsoft Corporation, Washington, USA).

[14] = target: T1, Porcine brain tubulin plus MAPs; assay: In vitro tubulin polymerization assay; type: biochemical; conditions: for effect on tubulin assembly in vitro at 1 mM: Figure 4D
Method: Porcine brain tubulin plus MAPs was prepared by two cycles of polymerization and depolymerization according to a standard protocol ([Gell et al., 2011]). In-vitro tubulin polymerization assays were carried out in PEM buffer (100 mM PIPES, 2 mM EGTA, 0.1 mM EDTA, 3 mM MgCl2, 1 mM ATP and 1 mM GTP, pH 6.85) by mixing 5.6 mg/ml tubulin-MAPs with different concentrations of cucurbitacins in 96-well plates at 37°C for 40 min. The rate and extent of the polymerization reaction were monitored by light scattering at 360 nm using Tecan infinite M200 Pro.
as §2

[15] = test system: mitotic spindles in Hela cells; assay: Immunofluorescence staining, mitotic spindles; type: cell-based, human; conditions: Hela metaphase cells, 24 h, IC50
Method: The immunofluorescence staining was carried out as established in our laboratory ([Wang et al., 2016a]).

U2OS cells [16] = assay: MTT assay (cytotoxicity), U2OS; type: cell-based, human; conditions: 48 h
Method: as §1, §2

[17] = test system: microtubule network in α-tubulin-GFP U2OS cells; assay: Imaging of tubulin-GFP transfected U2OS cells; type: cell-based, human; conditions: IC80 and IC50, 2-48 h
Method: Cells were imaged using a Keyence BZ-9000 microscope (Keyence; Neu-Isenburg, Germany) after incubation for 2 h, 4 h, 24 h and 48 h. The images were analyzed using BZ-II Analyzer software (version 2.1, Keyence; Neu-Isenburg, Germany).

[18] = 1 h and 24 h, ref Wang et al. (2016a)

T1 sequence (P02550 whole entry): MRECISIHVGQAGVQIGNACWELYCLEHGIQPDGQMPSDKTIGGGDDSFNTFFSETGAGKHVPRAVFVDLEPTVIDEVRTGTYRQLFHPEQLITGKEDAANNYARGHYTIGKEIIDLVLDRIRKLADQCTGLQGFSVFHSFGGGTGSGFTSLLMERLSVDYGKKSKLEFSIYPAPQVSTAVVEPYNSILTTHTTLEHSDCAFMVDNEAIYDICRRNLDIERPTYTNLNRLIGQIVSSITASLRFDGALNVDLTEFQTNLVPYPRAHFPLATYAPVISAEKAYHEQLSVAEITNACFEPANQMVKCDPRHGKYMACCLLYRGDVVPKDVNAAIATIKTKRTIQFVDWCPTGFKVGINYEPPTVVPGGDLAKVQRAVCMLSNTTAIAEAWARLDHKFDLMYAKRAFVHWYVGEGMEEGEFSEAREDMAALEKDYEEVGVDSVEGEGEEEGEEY
T1 sequence (P02554 whole entry): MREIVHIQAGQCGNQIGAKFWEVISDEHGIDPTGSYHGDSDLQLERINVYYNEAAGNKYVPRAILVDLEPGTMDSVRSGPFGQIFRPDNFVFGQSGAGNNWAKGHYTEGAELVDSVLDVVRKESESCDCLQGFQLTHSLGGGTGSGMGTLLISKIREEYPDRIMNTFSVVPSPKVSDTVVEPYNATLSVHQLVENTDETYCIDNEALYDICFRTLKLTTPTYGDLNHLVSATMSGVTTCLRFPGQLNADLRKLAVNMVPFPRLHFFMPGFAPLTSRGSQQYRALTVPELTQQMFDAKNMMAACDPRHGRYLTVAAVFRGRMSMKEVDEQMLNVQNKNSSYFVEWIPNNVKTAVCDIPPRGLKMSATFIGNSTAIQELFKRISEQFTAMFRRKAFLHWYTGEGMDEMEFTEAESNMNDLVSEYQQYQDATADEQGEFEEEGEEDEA

Compound	IC50 (Hela cells [4]) [µM]	IC80 (Hela cells [4]) [µM]	IC50 (MCF-7 cells [5]) [µM]	IC80 (MCF-7 cells [5]) [µM]	IC50 (U2OS cells [6]) [µM]	IC80 (U2OS cells [6]) [µM]	effect on cell cycle (Hela cells [7])	effect on cellular actin filaments (actin-RFP) [8]	effect on mitotic spindles [9]	effect on actin filaments (immunofluorescence) [3, 18]	IC50 [10] [µM]	IC50 (Hela cells [11]; Homo sapiens, HeLa) [µM]	IC80 (Hela cells [11]; Homo sapiens, HeLa) [µM]	IC50 (MCF-7 cells [12]; Homo sapiens, MCF7, 72 h) [µM]	IC80 (MCF-7 cells [12]; Homo sapiens, MCF7, 72 h) [µM]	effect on cell cycle (Hela cells [13])	IC50 [14] [µM]	effect on tubulin assembly in vitro [14]	effect on tubulin assembly in vitro at 1 mM [14]	effect on mitotic spindles [15]	other results
CC[C@]1(O)C[C@@H]2CN(CCc3c([nH]c4ccccc34)[C@@](C(=O)OC)(c3cc4c(cc3OC)N(C)[C@H]3[C@@](O)(C(=O)OC)[C@H](OC(C)=O)[C@]5(CC)C=CCN6CC[C@]43[C@@H]65)C2)C1 [Vinblastine, vinblastine]	2e-05 ± 1e-05	0.7 ± 0.34	6e-05 ± 5e-05	2.08 ± 0.92	0.00011 ± 7e-05	1.15 ± 0.51	dose-dependent G2/M cell cycle arrest	No notable changes on actin filaments	depolymerized bipolar spindles	–	–	–	–	–	–	–	–	–	–	–	effect on cellular microtubule network ([1]; concentration of IC50, ref Wang et al. (2016a)): extensively depolymerized microtubules; effect on cellular microtubule network ([1]; concentration of IC80, ref Wang et al. (2016a)): tubulin paracrystals were formed and dispersed through out the cytoplasm; IC50 ([2]; 5.6 mg/ml tubulin-MAPs, 37°C, 40 min; ref Wang et al. (2016a); read-out: IC50, inhibition of tubulin polymerization in vitro; cited from earlier work): 1.57 ± 0.34 µM; effect on phases of microtubule assembly (nucleation, growth, steady state) ([2]; ref Wang et al. (2016a); cited from earlier work): inhibited the nucleation and growth phase during the assembly; effect on actin filaments (immunofluorescence) ([3]; 24 h, concentration of IC80, ref Wang et al. (2016a)): slight reduction of actin filament mass; G2/M population (Hela cells [7]; 10 nM): 78.04 ± 14.78%
COc1cc2c(c(OC)c1OC)-c1ccc(OC)c(=O)cc1[C@@H](NC(C)=O)CC2 [Colchicine, colchicine]	–	0.027 ± 0.00748	–	0.0799 ± 0.0409	–	0.87 ± 1.46	dose-dependent G2/M cell cycle arrest	No notable changes on actin filaments	completely depolymerized spindle with the compacted chromosomes	No apparent changes on actin filaments	–	–	–	–	–	–	–	–	–	–	G2/M population (Hela cells [7]; 0.1μM): 89.66 ± 2.04%
C/C1=C/C(=O)O[C@@H]2C[C@@H](CC[C@H](C)/C=C\CC1)O[C@@](O)([C@@H]1CSC(=O)N1)C2 [Latrunculin B, latrunculin B]	11.2 ± 1.27	63.9 ± 5.68	38.5 ± 1.7	140 ± 6.58	5.67 ± 0.59	37.2 ± 15.7	dose-dependent G2/M cell cycle arrest	actin cytoskeleton significantly disrupted	did not alter mitotic spindles and chromosome arrangements	actin cytoskeleton extensively disrupted	–	–	–	–	–	–	–	–	–	–	effect on cellular microtubule network ([1]; both concentrations (IC80, IC50), ref Wang et al. (2016a)): changed the cell morphology from stretching state into round state; IC50 ([2]; read-out: IC50, inhibition of tubulin polymerization in vitro; 5.6 mg/ml tubulin-MAPs, 37°C, 40 min; ref Wang et al. (2016a); cited from earlier work): > 1000 µM
CC(C)(O)/C=C/C(=O)[C@](C)(O)[C@H]1[C@H](O)C[C@@]2(C)[C@@H]3CC=C4[C@@H](C=C(O)C(=O)C4(C)C)[C@]3(C)C(=O)C[C@]12C [Cucurbitacin I, cucurbitacin I]	–	–	–	–	–	–	–	–	–	–	0.00643 to 0.0647	0.0448 ± 0.00154	0.0555 ± 0.00363	0.0647 ± 0.0143	0.29 ± 0.08	potential ability to arrest cell cycle at G2/M phase	> 1000	did not affect the tubulin assembly in vitro	did not affect the assembly	multipolar spindles and chromosomes mis-segregation on the metaphase plate	G2/M population (Hela cells [13]; 0.6μM): 59.18 ± 7.2%; IC50 (U2OS cells [16]; Homo sapiens, U2OS): 0.0235 ± 0.0169 µM; IC80 (U2OS cells [16]; Homo sapiens, U2OS): 0.034 ± 0.0177 µM
CC(=O)OC(C)(C)/C=C/C(=O)[C@](C)(O)[C@H]1[C@H](O)C[C@@]2(C)[C@@H]3CC=C4[C@@H](C=C(O)C(=O)C4(C)C)[C@]3(C)C(=O)C[C@]12C [Cucurbitacin E, cucurbitacin E]	–	–	–	–	–	–	–	–	–	–	0.00643 to 0.0647	0.00643 ± 0.00105	0.0151 ± 0.00267	0.054 ± 0.00316	0.92 ± 0.2	potential ability to arrest cell cycle at G2/M phase	567 ± 113	–	–	disordered distribution of spindle array	effect on cellular microtubule network [17]: changed the morphology of microtubule network into half-stretching state after 2 h incubation then round state after 24 h incubation; G2/M population (Hela cells [13]; 0.3μM): 59.35 ± 5.69%; effect on phases of microtubule assembly (nucleation, growth, steady state) [14]: did not affect the nucleation but inhibited the growth phase and steady state; IC50 (U2OS cells [16]; Homo sapiens, U2OS): 0.0151 ± 0.00451 µM; IC80 (U2OS cells [16]; Homo sapiens, U2OS): 0.0263 ± 0.0185 µM
cucurbitacin B	–	–	–	–	–	–	–	–	–	–	–	–	–	–	–	potential ability to arrest cell cycle at G2/M phase	–	did not affect the tubulin assembly in vitro	did not affect the assembly	disordered distribution of spindle array	effect on tubulin polymerization in vitro ([2]; same assay; ref Duangmano et al. (2012); cited from earlier work): did not affect tubulin polymerization in vitro; IC50 (Hela cells [11]): 0.0122 ± 0.00142 µM; IC80 (Hela cells [11]): 0.022 ± 0.00139 µM; IC50 (MCF-7 cells [12]; 72 h): 0.0229 ± 0.00451 µM; IC80 (MCF-7 cells [12]; 72 h): 0.0437 ± 0.0106 µM; effect on cellular microtubule network [17]: changed the morphology of microtubule network into half-stretching state after 2 h incubation then round state after 24 h incubation; IC50 (U2OS cells [16]): 0.0171 ± 0.00455 µM; IC80 (U2OS cells [16]): 0.0281 ± 0.0152 µM
